Test results: patent publication US20040039014A1, “Methods and compounds for treating depression and other disorders” (NPS Pharmaceuticals, Inc., priority 1998, published 2004)
Where a name gives a salt, the structure may show the parent alone. Marks after values point to notes of the source that are not given here.

Legend:
NMDA receptor = tested on: T1, NMDA receptor; experiment: NMDA receptor assay (fura-2 cytosolic calcium in cultured rat cerebellar granule cells); type: cell-based; conditions: Table I, read-out: fura2 data IC50
T1 construct: fura2 data IC50; rat cerebellar granule cells
Protocol: All culture media, antibiotics, and enzymes, with the exception of fetal calf serum (Hyclone Laboratories, Logan, Utah), were purchased from Sigma Chemical Co., St. Louis, Mo. Fura-2/AM was obtained from Molecular Probes, Eugene, Oreg., and was prepared freshly in dimethylsulfoxide (DMSO) before use. Ionomycin (Calbiochem) was stored as a stock solution in DMSO. Nifedipine (Sigma) and nimodipine (RBI) were dissolved in absolute ethanol. […] All other agents were dissolved in phosphate-buffered saline (PBS), and adjusted to pH 7.4
Preparation of Rat Cerebellar Granule Cell (RCGC) Cultures
Briefly, primary cultures of cerebellar granule neurons were obtained from 8-day-old rats and plated onto squares of Aclar plastic coated with poly-L-lysine. The plastic squares were placed in 12-well culture plates, and ˜7.5×10^5 cells were added to each well. Cultures were maintained in Eagles's medium containing 25 mM KCl, 10% fetal calf serum, 2 mM glutamine, 100 μg/ml gentamicin, 50 U/ml penicillin, and 50 μg/ml streptomycin at 37° C. in a humid atmosphere of 5%CO2 in air for 24 hr before the addition of cytosine arabinoside (10 μM, final). No changes of culture medium were made until the cells were used for fluorescence recording 6-8 days after plating.
Measurement of Cytosolic Calcium
(“Ca^2+-free” buffer contained no added CaCl2 and 30 μM EGTA). The cells were then rinsed with the same buffer, lacking fura-2/AM, and maintained at room temperature until used for measurement of fluorescence, the Aclar squares were transferred into quartz cuvettes containing 2 ml of the HEPES buffer. The cuvette was then placed into a thermostatted holder equipped with a magnetic stirrer in a custom-built spectrofluorimeter (Biomedical Instrumentation Group, University of Pennsylvania, Philadelphia, Pa.). The size of the plastic Aclar square was such as to fit snugly in the cuvette when placed at a diagonal and therefore suspend itself over the spin bar. Fluorescence was measured using excitation and emission wavelengths of 340 and 510 nm, respectively. The amplitude of the evoked increase in fluorescence and subsequent inhibition were recorded and the concentration of [Ca^2+]i was calculated using the formula:
[Ca^2+]=Kd (F-Fmin)/(Fmax-F) (Eq. 1)
F=fluorescence amplitude evoked at a particular time point or concentration of compound;
Fmin=minimum fluorescence determined after the addition of a 2.5 M TRIS/0.3 M EGTA solution;
Fmax=maximum fluorescence determined following the addition of 7 mM ionomycin in DMSO; and […]

male C57BL/6 mice = experiment: Mouse tail-suspension test (TST) with Compound 60; type: in vivo; conditions: for Mean duration of immobility: Table VII, 5 mg/kg p.o. single dose, saline control 154.9
Protocol: For the mouse tail-suspension test with Compound 60, male pathogen-free C57BL/6 mice (Harlan Sprague-Dawley) weighing between 22-25 g were used. Animals were removed from the housing room to the testing area in their own cages and allowed to adapt to the new environment for at least 1 hour before testing. Mice were administered either drug (imipramine, 15 mg/kg i.p.; or Compound 60, various p.o. doses) or saline. Thirty minutes to 24 hours later, the mice were suspended on the edge of a shelf 80 cm above the floor in the testing room by adhesive tape placed approximately 1 cm from the tip of the tail. The duration of immobility was recorded during a test period of 5 minutes. Mice were considered immobile only when they hung passively and completely motionless. Results were expressed as the duration of immobility (sec).

Solubility = type: physicochemical; conditions: hydrochloride salt

With CNCCC(c1cccc(F)c1)c1cccc(F)c1 [Compound 60, N-Methyl-3.,3-bis(3-fluorophenyl)propylamine hydrochloride] the IC50 (NMDA receptor) was 416 nM, the “Duration of Immobility” value (male C57BL/6 mice; Table IX (experiment #2), 0.625 mg/kg single oral dose 60 minutes prior to testing, saline control 149.1) was 143.3 s and the “Duration of Immobility” value (male C57BL/6 mice; Table IX (experiment #2), 1.25 mg/kg single oral dose 60 minutes prior to testing, saline control 149.1) was 125.8 s. The “Duration of Immobility” value (male C57BL/6 mice; Table IX (experiment #2), 2.5 mg/kg single oral dose 60 minutes prior to testing, saline control 149.1) was 69.6* sec, the “Duration of Immobility” value (male C57BL/6 mice; Table IX (experiment #2), 5 mg/kg single oral dose 60 minutes prior to testing, saline control 149.1) was 69.5* sec and the “Duration of Immobility” value (male C57BL/6 mice; Table IX (experiment #2), 10 mg/kg single oral dose 60 minutes prior to testing, saline control 149.1) was 15.6* sec. For the same compound, the “Mean duration of immobility” value (male C57BL/6 mice; time post-dose 0.5) was 84.9* sec, the “Mean duration of immobility” value (male C57BL/6 mice; time post-dose 1) was 74.7* sec and the “Mean duration of immobility” value (male C57BL/6 mice; time post-dose 2) was 93.0* sec. For the same compound, the “Mean duration of immobility” value (male C57BL/6 mice; time post-dose 4) was 109.7 s, the “Mean duration of immobility” value (male C57BL/6 mice; time post-dose 6) was 125.5 s and the “Mean duration of immobility” value (male C57BL/6 mice; time post-dose 24) was 177.7 s. For the same compound, the “Duration of Immobility” value (male C57BL/6 mice; Table VIII (experiment #1), 2.5 mg/kg single oral dose 60 minutes prior to testing, saline control 210.1) was 130.7* sec, the “Duration of Immobility” value (male C57BL/6 mice; Table VIII (experiment #1), 5 mg/kg single oral dose 60 minutes prior to testing, saline control 210.1) was 123.5* sec and the “Duration of Immobility” value (male C57BL/6 mice; Table VIII (experiment #1), 10 mg/kg single oral dose 60 minutes prior to testing, saline control 210.1) was 47.8* sec. The “time of peak effect (reduction in the duration of immobility) post-dosing” value (male C57BL/6 mice; mouse TST, single 5-mg/kg oral dose) was 60 min, the solubility (Solubility; ethanol, organic solvent or mixture, EtOH) was 1000 mg/mL and the solubility (Solubility; water, H2O) was 2000 mg/mL.
